Measured values from ChEMBL document CHEMBL1201862, “PubChem BioAssay data set” (2004).
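Assay format: 96-well plates, 48-hour exposure. GI50 is the concentration that inhibits growth by half.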 Activity calls are given as the source filed them. Cut-off read from the data, not from the text of the source: active = GI50 up to about 1.1 µM and inactive = higher.

Assays:
Assay in all cases: NCI anticancer screen, dose series, 48 h
SK-OV-3 = system: SK-OV-3
SNB-75 = system: SNB-75
SW-620 = system: SW-620
HCC 2998 = system: HCC 2998
UACC-257 = system: UACC-257
M14 = system: M14
TK-10 = system: TK-10
NCI-H522 = system: NCI-H522
HT-29 = system: HT-29
786-0 = system: 786-0
KM12 = system: KM12
UO-31 = system: UO-31
U-251 = system: U-251
K562 = system: K562
RXF 393 = system: RXF 393
OVCAR-5 = system: OVCAR-5
NCI-H460 = system: NCI-H460
A498 = system: A498

Compound	GI50 (SK-OV-3)	GI50 (SNB-75)	GI50 (SW-620)	GI50 (HCC 2998)	GI50 (UACC-257)	GI50 (M14)	GI50 (TK-10)	GI50 (NCI-H522)	GI50 (HT-29)	GI50 (786-0)	GI50 (KM12)	GI50 (UO-31)	GI50 (U-251)	GI50 (K562)	GI50 (RXF 393)	GI50 (OVCAR-5)	GI50 (NCI-H460)	GI50 (A498)
CN(C)CCSc1cccc(-c2cc(-c3cccc(SCCN(C)C)c3)nc(SCCN(C)C)n2)c1	30.1 µM (inactive)	2.95 µM (inactive)	1.87 µM (inactive)	2.29 µM (inactive)	1.59 µM (inactive)	1.62 µM (inactive)	2.88 µM (inactive)	1.61 µM (inactive)	1.55 µM (inactive)	7.85 µM (inactive)	1.66 µM (inactive)	12.8 µM (inactive)	1.91 µM (inactive)	1.49 µM (inactive)	1.35 µM (inactive)	6.79 µM (inactive)	1.85 µM (inactive)	
CCOc1ccc(/C(C=O)=C(\Cl)c2ccc(OC)c(OC)c2)cc1	> 100 µM (inactive)		> 100 µM (inactive)			> 100 µM (inactive)	> 100 µM (inactive)	> 100 µM (inactive)	> 100 µM (inactive)			> 100 µM (inactive)	> 100 µM (inactive)	> 100 µM (inactive)			> 100 µM (inactive)	> 100 µM (inactive)
Cc1nc([N+](=O)[O-])cn1CC(=N)N		20.8 µM (inactive)	> 100 µM (inactive)	> 100 µM (inactive)	> 100 µM (inactive)	> 100 µM (inactive)	> 100 µM (inactive)		> 100 µM (inactive)	> 100 µM (inactive)		> 100 µM (inactive)	> 100 µM (inactive)	> 100 µM (inactive)	> 100 µM (inactive)		> 100 µM (inactive)	> 100 µM (inactive)
CC(=O)N1[C@H](C(=O)O)CS[C@H]1c1ccncc1		> 100 µM (inactive)	> 100 µM (inactive)	> 100 µM (inactive)	> 100 µM (inactive)	> 100 µM (inactive)	> 100 µM (inactive)		> 100 µM (inactive)	> 100 µM (inactive)	> 100 µM (inactive)	> 100 µM (inactive)		> 100 µM (inactive)	> 100 µM (inactive)	> 100 µM (inactive)	> 100 µM (inactive)	> 100 µM (inactive)
Cc1ccc(S(=O)(=O)OCOS(=O)(=O)c2ccc(C)cc2)cc1	> 100 µM (inactive)		> 100 µM (inactive)	> 100 µM (inactive)	> 100 µM (inactive)	> 100 µM (inactive)	> 100 µM (inactive)	> 100 µM (inactive)		> 100 µM (inactive)	> 100 µM (inactive)	> 100 µM (inactive)	> 100 µM (inactive)	> 100 µM (inactive)	> 100 µM (inactive)	> 100 µM (inactive)	58.1 µM (inactive)	
O=C1Sc2sc(=S)sc2SC1c1ccccc1 (configuration not stated)	> 100 µM (inactive)	> 50.2 µM (inactive)	21.1 µM (inactive)	> 89.7 µM (inactive)	> 74.3 µM (inactive)			14.2 µM (inactive)	40.8 µM (inactive)		> 80.9 µM (inactive)	39 µM (inactive)	52.5 µM (inactive)	32.7 µM (inactive)	28.4 µM (inactive)	> 100 µM (inactive)	80.7 µM (inactive)	> 100 µM (inactive)
O=C1c2ccccc2C(=O)N1CC(O)COc1cccc2ccccc12 (configuration not stated)	> 100 µM (inactive)		> 100 µM (inactive)	> 100 µM (inactive)	> 100 µM (inactive)	> 100 µM (inactive)	> 100 µM (inactive)	> 100 µM (inactive)	> 100 µM (inactive)			> 100 µM (inactive)	> 100 µM (inactive)	> 100 µM (inactive)		> 100 µM (inactive)	> 100 µM (inactive)	73.5 µM (inactive)
NC(=O)/C(=N\NC(=O)c1cc2ccccc2cc1O)C1C(=O)N(c2ccccc2)N=C1N (configuration not stated)		20.5 µM (inactive)	37.2 µM (inactive)	37.9 µM (inactive)	23.4 µM (inactive)	31.5 µM (inactive)	> 100 µM (inactive)		44.2 µM (inactive)	40 µM (inactive)	35.6 µM (inactive)	7.73 µM (inactive)	30.3 µM (inactive)		29.3 µM (inactive)	22.2 µM (inactive)	> 100 µM (inactive)	1.23 µM (inactive)
S=P1(c2ccccc2)Nc2ccc(Cl)cc2N1 (configuration not stated)	37.5 µM (inactive)		> 100 µM (inactive)	> 100 µM (inactive)	> 100 µM (inactive)	18.5 µM (inactive)	> 100 µM (inactive)	36.5 µM (inactive)	> 100 µM (inactive)	> 100 µM (inactive)	88.9 µM (inactive)	56.4 µM (inactive)	> 100 µM (inactive)	49.3 µM (inactive)		> 100 µM (inactive)	> 100 µM (inactive)	> 100 µM (inactive)
O=C(Cl)c1cc([N+](=O)[O-])cc([N+](=O)[O-])c1	> 100 µM (inactive)	> 100 µM (inactive)	> 100 µM (inactive)	> 100 µM (inactive)	> 100 µM (inactive)	> 100 µM (inactive)	> 100 µM (inactive)	> 100 µM (inactive)	> 100 µM (inactive)	> 100 µM (inactive)	> 100 µM (inactive)	> 100 µM (inactive)	> 100 µM (inactive)	> 100 µM (inactive)		> 100 µM (inactive)	> 100 µM (inactive)	
COc1cccc(NC(=O)CC(=O)N2N=C(N3c4ccccc4Sc4ccccc43)CC2c2ccccc2)c1 (configuration not stated)	> 100 µM (inactive)	> 100 µM (inactive)	> 100 µM (inactive)	> 100 µM (inactive)	> 100 µM (inactive)	> 100 µM (inactive)	> 100 µM (inactive)		> 100 µM (inactive)	> 100 µM (inactive)	> 100 µM (inactive)	> 100 µM (inactive)	> 100 µM (inactive)		> 100 µM (inactive)	> 100 µM (inactive)	> 100 µM (inactive)	> 100 µM (inactive)
CC(=O)[O-].[O-]c1c(Cl)cc(Cl)cc1/C=N/Nc1ccccn1.[Zn+2]		4.99 µM (inactive)	1.74 µM (inactive)	9.86 µM (inactive)	0.418 µM (active)	0.387 µM (active)		0.41 µM (active)	6.82 µM (inactive)	1.59 µM (inactive)	6.3 µM (inactive)	0.31 µM (active)	3.12 µM (inactive)	0.372 µM (active)	0.923 µM (active)	2 µM (inactive)	1.38 µM (inactive)	> 100 µM (inactive)
CCNC(=O)C(O)C1(O)CCC2[C@@H]3CCC4=CC(=O)C=C[C@]4(C)C3[C@@H](O)C[C@@]21C (some centres not stated)	> 100 µM (inactive)	> 100 µM (inactive)	> 100 µM (inactive)	> 100 µM (inactive)	> 100 µM (inactive)	> 100 µM (inactive)	> 100 µM (inactive)	> 100 µM (inactive)	> 100 µM (inactive)	> 100 µM (inactive)	> 100 µM (inactive)	> 100 µM (inactive)	> 100 µM (inactive)	> 91 µM (inactive)	> 100 µM (inactive)	> 100 µM (inactive)	> 100 µM (inactive)	
